Reference: PMC12521527, “In vivo self-assembled nano-PROTAC for the dual degradation of AR and HSP90 to overcome castration-resistant prostate cancer resistance” (Signal Transduction and Targeted Therapy, 2025)
Numbered stars: 1 amine (or outer) side, 2 acyl side, 3 side chain; on linkers, the order of the positions; unused ones are H or OH. Square brackets hold non-standard residues; d marks the D form. Peptide text beside a SMILES is read from it. * marks the point of attachment. X2 = CC1(C)C(=O)N(c2ccc(C#N)c(C(F)(F)F)c2)C(=S)N1c1ccc(C(=O)*)c(F)c1; X1 = O=C1CCC(N2C(=O)c3cccc(N(CC(=O)[*:2])[*:1])c3C2=O)C(=O)N1; EuK = O=C(O)CC[C@H](NC(=O)N[C@@H](CCCCN*)C(=O)O)C(=O)O; 2Nal = N[C@@H](Cc1ccc2ccccc2c1)C(=O)O

Columns and labels:
AR protein = target: T1, AR protein (Homo sapiens, UniProt P10275); test: MST binding affinity, Psa-AR and AR protein; settings: RED-NHS-labeled AR 400 nM, PBS-T, 22 °C, n = 3, read-out: Kd, binding affinity between Psa-AR and AR
T1 sequence (P10275 1-920): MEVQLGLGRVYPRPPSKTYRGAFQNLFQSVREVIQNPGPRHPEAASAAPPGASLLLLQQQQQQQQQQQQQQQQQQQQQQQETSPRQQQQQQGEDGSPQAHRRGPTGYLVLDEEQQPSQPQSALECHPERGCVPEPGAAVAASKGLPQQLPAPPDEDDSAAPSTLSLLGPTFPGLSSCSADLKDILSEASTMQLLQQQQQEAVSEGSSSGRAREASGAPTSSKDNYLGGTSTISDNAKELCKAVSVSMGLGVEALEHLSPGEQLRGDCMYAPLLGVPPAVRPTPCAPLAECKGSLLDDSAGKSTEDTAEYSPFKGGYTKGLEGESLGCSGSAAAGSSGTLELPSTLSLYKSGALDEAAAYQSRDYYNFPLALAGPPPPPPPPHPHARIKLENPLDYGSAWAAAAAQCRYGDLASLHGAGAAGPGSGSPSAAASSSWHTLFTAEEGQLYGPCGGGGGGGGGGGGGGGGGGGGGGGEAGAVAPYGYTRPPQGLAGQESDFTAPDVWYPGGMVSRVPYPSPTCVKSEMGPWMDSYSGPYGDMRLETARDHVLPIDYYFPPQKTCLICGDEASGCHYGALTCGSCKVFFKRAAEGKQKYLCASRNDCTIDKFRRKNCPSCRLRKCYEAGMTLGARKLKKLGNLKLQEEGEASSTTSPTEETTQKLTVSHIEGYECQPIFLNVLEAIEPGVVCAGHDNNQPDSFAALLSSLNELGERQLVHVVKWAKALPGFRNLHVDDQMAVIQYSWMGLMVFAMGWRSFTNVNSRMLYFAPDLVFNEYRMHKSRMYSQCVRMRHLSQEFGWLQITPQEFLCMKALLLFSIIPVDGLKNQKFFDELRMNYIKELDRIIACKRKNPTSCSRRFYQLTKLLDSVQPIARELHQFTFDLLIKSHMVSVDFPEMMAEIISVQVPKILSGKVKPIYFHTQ
Text: (§1) Fig. 3 Polynary nanocomposite (AR: Psa-AR: CRBN) formation. a Dose‒response curve for the binding interaction between Psa-AR and the AR protein; n = 3 per group. b Dose‒response curve for the binding interaction between Psa-AR and the CRBN protein; n = 3 per group. c Dose‒response curve for the binding interaction between the binary complex (Psa-AR: AR) and CRBN, n = 3 per group. d In vitro Psa-AR self-assembly, protein binding and degradation. e Representative 22Rv1 cell CLSM images of FITC-labeled Psa-AR assembly (green channel) interacting with HSP90 (red channel) and its colocalization analysis (1–1’). […] Scale bar: 10 μm.
(§2) MST (NanoTemper Technologies GmbH, Munich, Germany) was utilized to evaluate the binding affinity between Psa-AR and RED-NHS-labeled PSMA, AR, or CRBN proteins. The PSMA, AR, and CRBN proteins were labeled with the Protein Labeling Kit RED-NHS 2nd Generation (Amine Reactive). RED-PSMA, RED-AR, and RED-CRBN proteins were diluted to a final concentration of 400 nM with PBS-T buffer (0.05% Tween 20), where the fluorescence signals satisfied the typical detection limit of the Monolith NT.115 instrument (NanoTemper Technologies). The binding affinity between Psa-AR and the RED-NHS-labeled AR protein was assessed. […] Then, 10 µL of RED-CRBN was added to each sample to achieve a final concentration of 400 nM. […] The data were analyzed by NanoTemper analysis software.

CRBN protein = CRBN protein (Homo sapiens, UniProt Q96SW2); test: MST binding affinity, Psa-AR and CRBN protein; settings: RED-NHS-labeled CRBN 400 nM, PBS-T, 22 °C, n = 3
Text: as §1, §2

[1] = target: CRBN, with prebound AR (AR: Psa-AR: CRBN) (Homo sapiens, UniProt P10275+Q96SW2); test: MST binding of binary complex (Psa-AR: AR) to CRBN; settings: binary complex Psa-AR: AR titrated against RED-CRBN 400 nM, 20 min incubation, 22 °C, n = 3, read-out: Kd, affinity for CRBN in the presence of prebound AR
Text: as §1, §2

AR [2] = target: T2, AR (Homo sapiens, UniProt P10275, T878A); test: Western blot AR degradation in LNCaP cells; type: cell-based
T2 construct: endogenous in cells; host or cells: LNCaP
Method: (§3) All uncropped blots are presented in Supplementary Fig. 26. j, k Representative 22Rv1 cell CLSM images of the degradation of AR after incubation with FITC-labeled Psa-AR for 12 h and quantitative analysis, n = 3 per group. Scale bar: 10 μm. l, m Representative 22Rv1 cell CLSM images of the degradation of HSP90 after incubation with FITC-labeled Psa-AR for 12 h and quantitative analysis, n = 3 per group. Scale bar: 10 μm. n AR-V7 expression in 22Rv1 cells after treatment with PBS, P-AR (20 μM), Psa-AR (20 μM) or Psa-AR (20 μM) combined with MG132 (2 μM) for 48 h, as determined by western blotting. β-Actin was used as an internal reference. o Results of apoptosis in 22Rv1 cells treated with PBS, P-AR (20 μM), or Psa-AR (20 μM) for 48 h, as detected by flow cytometry.
(§4) The pretreated cells were resuspended in lysis buffer containing 50 mM Tris-HCl (pH 8.0), 150 mM NaCl, 1% (v/v) Triton X-100, and protease inhibitors. The protein concentration was determined via a BCA kit (Applygen). Each sample ([…]) was subjected to SDS‒PAGE and then transferred to a PVDF membrane. The blots were blocked in 5% (wt/v) blocking buffer. After washing three times with TBST buffer (10 mM TBS solution containing 0.1% (v/v) Tween-20), the blots were incubated with primary antibodies at 4 °C on a shaker for 16 h. After washing with TBST buffer three times, the blot was incubated with secondary antibodies at room temperature on a shaker for 2 h. After being washed three times with TBST buffer, the blots were subsequently scanned on a Typhoon Trio Variable Mode Imager.

AR [3] = test: Western blot AR degradation in 22Rv1 (PSMA^KD) cells; type: cell-based; settings: 20 μM, 48 h
Method: as §3
as §4, with “After washing with TBST buffer three times, the blot was incubated with secondary antibodies at room temperature on a shaker for 2 h. After being washed three times with TBST buffer, the blots were subsequently scanned on a Typhoon Trio Variable Mode Imager.” left out

HSP90 = test: Western blot HSP90 degradation in 22Rv1 cells; type: cell-based
Method: as §3
as §4, with “After washing with TBST buffer three times, the blot was incubated with secondary antibodies at room temperature on a shaker for 2 h. After being washed three times with TBST buffer, the blots were subsequently scanned on a Typhoon Trio Variable Mode Imager.” left out

22Rv1 cells = test: Annexin V/PI apoptosis by flow cytometry; type: cell-based; settings: 22Rv1, 20 μM, 48 h, n = 3
Method: as §3

RWPE-1 cells = test: Cytotoxicity in normal RWPE-1 cells; type: cell-based; settings: PSMA^low normal RWPE-1 cells, 1–100 μM, 48 h of exposure

T2 sequence (P10275 whole entry T878A): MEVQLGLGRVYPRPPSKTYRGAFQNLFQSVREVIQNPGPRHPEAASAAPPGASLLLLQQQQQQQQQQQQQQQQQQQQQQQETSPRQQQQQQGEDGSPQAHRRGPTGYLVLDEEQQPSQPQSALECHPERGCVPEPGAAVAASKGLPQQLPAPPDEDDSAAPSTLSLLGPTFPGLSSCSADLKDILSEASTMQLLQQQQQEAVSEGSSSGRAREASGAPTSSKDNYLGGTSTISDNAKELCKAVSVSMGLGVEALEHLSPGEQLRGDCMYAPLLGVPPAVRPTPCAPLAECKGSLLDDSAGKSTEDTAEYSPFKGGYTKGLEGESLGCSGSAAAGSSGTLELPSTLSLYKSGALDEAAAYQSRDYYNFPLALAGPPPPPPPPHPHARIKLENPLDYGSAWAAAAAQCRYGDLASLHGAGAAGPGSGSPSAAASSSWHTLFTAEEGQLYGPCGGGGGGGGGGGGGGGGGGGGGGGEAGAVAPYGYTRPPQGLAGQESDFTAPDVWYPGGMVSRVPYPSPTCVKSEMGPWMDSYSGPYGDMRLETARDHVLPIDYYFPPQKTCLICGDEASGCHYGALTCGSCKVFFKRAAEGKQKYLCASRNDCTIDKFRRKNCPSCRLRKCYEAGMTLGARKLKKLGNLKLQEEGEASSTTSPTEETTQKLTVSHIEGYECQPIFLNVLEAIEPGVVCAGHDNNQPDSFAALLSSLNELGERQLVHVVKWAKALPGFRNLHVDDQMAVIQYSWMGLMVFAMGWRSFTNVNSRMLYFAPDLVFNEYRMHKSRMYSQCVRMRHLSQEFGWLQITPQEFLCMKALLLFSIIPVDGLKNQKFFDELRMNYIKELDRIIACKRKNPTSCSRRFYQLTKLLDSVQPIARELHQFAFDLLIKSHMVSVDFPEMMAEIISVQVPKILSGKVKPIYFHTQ
T2 sequence (Q16531 whole entry, further chain): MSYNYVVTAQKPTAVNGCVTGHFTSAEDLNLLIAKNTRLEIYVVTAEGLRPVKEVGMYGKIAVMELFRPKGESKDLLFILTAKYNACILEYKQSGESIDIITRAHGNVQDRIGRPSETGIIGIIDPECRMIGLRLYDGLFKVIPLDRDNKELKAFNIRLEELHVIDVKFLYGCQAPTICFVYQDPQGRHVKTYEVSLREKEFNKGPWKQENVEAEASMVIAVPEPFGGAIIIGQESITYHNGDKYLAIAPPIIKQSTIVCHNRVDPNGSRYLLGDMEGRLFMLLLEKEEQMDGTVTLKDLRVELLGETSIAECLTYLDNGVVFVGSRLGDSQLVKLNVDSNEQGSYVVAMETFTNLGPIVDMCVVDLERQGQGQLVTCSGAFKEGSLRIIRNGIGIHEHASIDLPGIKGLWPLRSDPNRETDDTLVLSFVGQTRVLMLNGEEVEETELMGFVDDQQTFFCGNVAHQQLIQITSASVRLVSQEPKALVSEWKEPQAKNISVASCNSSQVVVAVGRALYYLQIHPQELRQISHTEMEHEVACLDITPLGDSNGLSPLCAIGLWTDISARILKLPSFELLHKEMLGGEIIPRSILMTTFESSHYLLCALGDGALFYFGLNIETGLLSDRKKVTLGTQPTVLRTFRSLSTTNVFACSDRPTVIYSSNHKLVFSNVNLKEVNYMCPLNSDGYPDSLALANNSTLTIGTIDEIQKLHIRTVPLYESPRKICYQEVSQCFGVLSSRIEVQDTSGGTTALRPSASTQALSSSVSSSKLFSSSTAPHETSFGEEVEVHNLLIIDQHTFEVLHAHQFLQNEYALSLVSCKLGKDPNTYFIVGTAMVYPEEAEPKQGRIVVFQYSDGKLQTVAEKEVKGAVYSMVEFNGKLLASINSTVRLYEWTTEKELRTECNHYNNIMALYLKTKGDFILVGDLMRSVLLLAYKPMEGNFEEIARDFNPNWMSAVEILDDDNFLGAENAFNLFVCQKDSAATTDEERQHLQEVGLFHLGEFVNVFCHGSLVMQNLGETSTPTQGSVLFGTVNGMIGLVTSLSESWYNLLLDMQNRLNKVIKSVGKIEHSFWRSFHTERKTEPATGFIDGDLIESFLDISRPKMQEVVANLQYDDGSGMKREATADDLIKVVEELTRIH
T2 sequence (Q96SW2 whole entry, further chain): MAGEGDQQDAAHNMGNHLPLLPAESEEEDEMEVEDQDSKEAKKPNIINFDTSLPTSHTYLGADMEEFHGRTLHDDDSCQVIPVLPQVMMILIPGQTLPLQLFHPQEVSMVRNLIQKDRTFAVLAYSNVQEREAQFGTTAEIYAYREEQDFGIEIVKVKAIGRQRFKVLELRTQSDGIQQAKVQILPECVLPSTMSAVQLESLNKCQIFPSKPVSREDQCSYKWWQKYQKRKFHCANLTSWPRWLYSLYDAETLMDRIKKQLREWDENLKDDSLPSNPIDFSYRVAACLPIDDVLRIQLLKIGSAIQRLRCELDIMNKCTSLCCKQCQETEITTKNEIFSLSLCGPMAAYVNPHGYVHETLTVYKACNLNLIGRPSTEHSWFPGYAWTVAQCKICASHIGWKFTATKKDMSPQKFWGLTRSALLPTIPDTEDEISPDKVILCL
Chain of CRBN, with prebound AR (AR: Psa-AR: CRBN) (Q96SW2 whole entry, one chain of several): as the sequence (Q96SW2 whole entry, further chain) above
Chain of CRBN protein (Q96SW2 whole entry): as the sequence (Q96SW2 whole entry, further chain) above

`CC1(C)C(=O)N(c2ccc(C#N)c(C(F)(F)F)c2)C(=S)N1c1ccc(C(=O)NCCCC[C@H](NC(=O)CNc2cccc3c2C(=O)N(C2CCC(=O)NC2=O)C3=O)C(=O)N[C@@H](CS)C(=O)N[C@@H](CCC(N)=O)C(=O)N[C@@H](Cc2ccc(O)cc2)C(=O)N[C@@H](CC(N)=O)C(=O)N[C@@H](CCC(N)=O)C(=O)N[C@@H](Cc2ccc(O)cc2)C(=O)N[C@@H](Cc2ccc(O)cc2)C(=O)N[C@@H](Cc2ccc3ccccc3c2)C(=O)NCCCC[C@H](NC(=O)N[C@@H](CCC(=O)O)C(=O)O)C(=O)O)c(F)c1` (some centres unmarked) [Psa-AR] (H-[X1]K(X2)CQYNQYY[2Nal]-EuK) gave a Kd (AR protein) of 950 nM, a Kd (CRBN protein) of 1060 nM and a Kd [1] of 1140 nM. For the same compound, the AR degradation rate (AR [2]; LNCaP cells, time-dependent evaluation) was 97%, the DC50 (AR [2]; read-out: DC50 for AR protein degradation, LNCaP cell line, 1 to 100 μM) was 11.4 µM and the “superior AR degradation efficiency relative to P-AR” value (AR [2]; western blot, LNCaP, 20 μM, 48 h) was 49%. The “AR protein degradation in PSMA-knockdown cells” value (AR [3]) was “failed to induce significant protein degradation”, the HSP90 degradation (HSP90; 22Rv1, 20 μM, 48 h, western blot) was greater than 60% and the “sustained HSP90 protein clearance over 96 h” value (HSP90; 22Rv1, optimal concentrations, 96 h) was 78%. For the same compound, the “total apoptotic cells (early and late phases)” value (22Rv1 cells) was 75% and the “cell viability relative to vehicle controls” value (RWPE-1 cells) was “above 90%”.
